Assay results as given in US20260256751A1, “COMBINATION OF BETA-2-ADRENERGIC RECEPTOR AGONISTS AND GLP-1 RECEPTOR AGONISTS FOR USE IN TREATING HYPERGLYCAEMIA” (ATROGI AB, priority 2023, published 2026).

Experiments:
[1] = system: differentiated L6-myotubes; experiment: Glucose uptake screen (Biological example 1 of WO 2019/053427); format: cell-based; conditions: compound at 10 μM, activity relative to isoproterenol at 10 μM, read-out: Biological example 1 of WO 2019/053427 (GU)
Protocol: (§1) Compounds described in publications referenced and incorporated herein were screened in accordance with the procedures outlined in Biological example 1 and Biological example 2 of WO 2019/053427.
L6-myoblasts were grown in Dulbecco's Modified Eagle's Medium (DMEM) containing 1 g/L glucose supplemented with 10% fetal bovine serum (FBS), 2 mM L-glutamine, 50 U/mL penicillin, […] streptomycin and 10 mM HEPES. Cells were plated at 1x 10^5 cells per mL in 24-well plates. After reaching 90% confluence the cells were grown in medium containing 2% FBS for 7 days where upon cells differentiated into myotubes. The differentiated L6-myotubes were serum-starved overnight in medium containing 0.5% fatty-acid free BSA and stimulated with Compound A at a final concentration of 1×10^−5 M in the presence of the selective β2-adrenergic receptor antagonist ICI-118551. After 1 h 40 min the cells were washed with warm, glucose free medium twice and another portion of agonist was added to the glucose free medium. After another 20 min of incubation the cells were exposed to 50 nM ^3H-2-deoxyglucose for 10 min before washed in ice cold glucose free medium three times and lysed in 400 µl/well 0.2 M NaOH for 1 h at 60° C. The cell lysate was mixed with 4 ml scintillation buffer (Emulsifier Safe, Perkin Elmer) and the radioactivity was detected in a P-counter (Tri-Carb 4810TR, Perkin Elmer).

[2] = system: differentiated L6-myotubes; experiment: cAMP production relative to isoprenaline (Biological example 2 of WO 2019/053427); format: cell-based; conditions: 0.25 h, compound at 10 μM, activity relative to isoproterenol at 10 μM
Text: For example, the level of cAMP production induced by a given compound can be determined by reference to the amount induced by a defined concentration of that compound relative to that induced by the same concentration of a reference compound, such as isoprenaline, using techniques known to those skilled in the art (e.g. following the protocol as described in the biological examples provided in WO 2019/053427, i.e. in cells, such as differentiated L6-myotubes, having been stimulated with isoprenaline or the compound with a final concentration of 1×10^−5 M, for 15 min in stimulation buffer, such as HBSS supplemented with 1% BSA, 5 mM HEPES and 1 mM IBMX, at pH 7.4).
as §1

Structure (SMILES)	Emax at 10 µM [1] [%]	Emax at 10 µM [2] [%]
CCCCNCC(O)c1ccc(Cl)c(N)c1 (centres unmarked) [Compound 36, 1-(3-amino-4-chlorophenyl)-2-(butylamino)-1-ethanol]	25 to 50	< 25
CC12CC(C1)[C@@H]([C@H](O)c1cncc(F)c1)N2 [Compound 223, (R)-{(S)-1-methyl-2-azabicyclo[2.1.1]hex-3-yl}(5-fluoro-3-pyridyl)methanol]	25 to 50	< 25
CCC[C@@H]1CCCC[C@H]([C@@H](O)c2cncc(F)c2)N1 [Compound 218, (S)-[(2R,7R)-7-propyl-2-azepanyl](5-fluoro-3-pyridyl)methanol]	< 25	< 25
Oc1ccc(C(O)CNCCCC2CCCCC2)cc1 (centres unmarked) [Compound 21, 2-(3-cyclohexylpropylamino)-1-(p-hydroxyphenyl)-1-ethanol]	> 75	< 25
CCC[C@@H]1CCCC[C@H]([C@H](O)c2cncc(F)c2)N1 [Compound 219, (R)-[(2R,7R)-7-propyl-2-azepanyl](5-fluoro-3-pyridyl)methanol]	< 25	< 25
O[C@@H](CNCCC[C@H]1CC[C@@H](OCc2ccccc2)CC1)c1cncc(F)c1 [Compound 275, (R)-1-(5-fluoro-3-pyridyl)-2-{3-[(1s,4R)-4-(benzyloxy)cyclohexyl]pro-pylamino}-1-ethanol]	50 to 75	< 25
COc1ccc(CC23CCC([C@@H](O)c4cccc(F)c4)(CC2)N3)cc1 [Compound 400, (S)-(m-fluorophenyl)(4-[(p-methoxyphenyl)methyl]-7-azabicyclo[2.2.1]hept-1-yl}methanol]	50 to 75	< 25
CC12CC(C1)[C@H]([C@@H](O)c1ccccc1F)N2 [Compound 212, (S)-{(R)-1-methyl-2-azabicyclo[2.1.1]hex-3-yl}(o-fluorophenyl)methanol]	> 75	< 25
CO[C@H]1CC[C@@H](C(C)(C)NC[C@H](O)c2cccc(F)c2)CC1 [Compound 251, (R)-1-(m-fluroophenyl)-2-{1-methyl-1-[(1s,4S)-4-methoxycyclohexyl]ethyl-amino}-1-ethanol]	< 25	< 25
CC(C)(C[C@H]1CC[C@@H](NS(=O)(=O)C2CC2)CC1)NC[C@H](O)c1cccc(F)c1 [Compound 494, (R)-2-{1,1-dimethyl-2-[(1s,4S)-4-(cyclopropylsuflonylamino)cyclohexyl]ethylamino}-1-(m-fluorophenyl)-1-ethanol]	25 to 50	< 25
CC(C)(C[C@H]1CC[C@H](N)CC1)NC[C@H](O)c1cccc(C#N)n1 [Compound 417, 6-[(S)-2-{1,1-dimethyl-2-[(1r,4S)-4-aminocyclohexyl]ethylamino}-1-hydroxyethyl]-2-pyridinecarbontirile]	> 75	25 to 50
CO[C@H]1CC[C@H](CCC23CCC([C@@H](O)c4cccc(F)c4)(CC2)N3)CC1 [Compound 410, (S)-(m-fluorophenyl)(4-{2-[(1r,4R)-4-methoxycyclohexyl]ethyl}-7-azabicyclo[2.2.1]hept-1-yl)methanol]	50 to 75	< 25
CO[C@H]1CC[C@@H](CCCNC[C@H](O)c2cncc(F)c2)CC1 [Compound 260, (R)-1-(5-fluoro-3-pyridyl)-2-{3-[(1s,4R)-4-methoxycyclohexyl]propyl-amino}-1-ethanol]	> 75	< 25
CC(C)(C[C@H]1CC[C@@H](NS(=O)(=O)C(F)(F)F)CC1)NC[C@H](O)c1cccc(F)c1 [Compound 493, (R)-2-{1,1-dimethyl-2-[(1s,4S)-4-(trifluoromesylamino)cyclohexyl]ethylamino}-1-(m-fluorophenyl)-1-ethanol]	25 to 50	< 25
Oc1ccc(C(O)CNCCCC(F)(F)F)cc1 (centres unmarked) [Compound 31, 1-(p-hydroxyphenyl)-2-(4,4,4-trifluorobutylamino)-1-ethanol]	50 to 75	–
